For this assay, the target named is MMP-13CD (catalytic domain of collagenase-3) (Homo sapiens, UniProt P45452). The assay is described as follows: Thiopeptolide substrate hydrolysis inhibition assay, MMP-13CD. It is filed as biochemical. The following applies: Table I; thiopeptolide substrate, HEPES pH 7.0, 22° C.; read-out: MMP-13CD IC50. From the text: Thiopeptolide substrates show virtually no decomposition or hydrolysis at or below neutral pH in the absence of a matrix metalloproteinase enzyme.

In US20030004172A1, “Fused pyrimidinone matrix metalloproteinase inhibitors” (priority 2001, published 2003) one finds IC50 data, which are given here for 35 compounds.

The structures appear in SMILES notation.

With `COc1cccc(CNC(=O)c2cc3c(=O)n(Cc4ccccc4)c(=O)n(C)c3s2)c1OC` [Example 334, 3-Benzyl-1-methyl-2,4-dioxo-1,2,3,4-tetrahydro-thieno[2,3-d]pyrimidine-6-carboxylic acid 2,3-dimethoxy-benzylamide], the IC50 is more than 100000 nM.
Regarding `Cc1ccc(CNC(=O)c2cc3c(=O)n(Cc4ccccc4)c(=O)n(C)c3s2)cc1` [Example 213, 3-Benzyl-1-methyl-2,4-dioxo-1,2,3,4-tetrahydro-thieno[2,3-d]pyrimidine-6-carboxylic acid 4-methyl-benzylamide], the IC50 worked out at 1700 nM.
In the case of `COc1cc(CNC(=O)c2cc3c(=O)n(CC4CCCCC4)c(=O)n(C)c3s2)ccn1` [Example 371, 3-Cyclohexylmethyl-1-methyl-2,4-dioxo-1,2,3,4-tetrahydro-thieno[2,3-d]pyrimidine-6-carboxylic acid (2-methoxy-pyridin-4-ylmethyl)-amide] it was 220 nM.
In the case of `COc1cccc(CNC(=O)c2cc3c(=O)n(Cc4ccc(C(=O)O)cc4)c(=O)n(C)c3s2)c1` [Example 79, 4-[6-(3-Methoxy-benzylcarbamoyl)-1-methyl-2,4-dioxo-1,4-dihydro-2H-thieno[2,3-d]pyrimidin-3-ylmethyl]-benzoic acid] it was 2.05 nM.
Take `COc1ccc(CNC(=O)c2cc3c(=O)n(C/C=C/C(=O)O)c(=O)n(C)c3s2)cc1` [Example 226, (E)-4-[6-(4-Methoxy-benzylcarbamoyl)-1-methyl-2,4-dioxo-1,4-dihydro-2H-thieno[2,3-d]pyrimidin-3-yl]-but-2-enoic acid]: the half-maximal inhibitory concentration (IC50) was determined as 4900 nM.
In the case of `COC(=O)Nc1cc(Cn2c(=O)c3cc(C(=O)NCc4cccc(OC)c4)sc3n(C)c2=O)on1` [Example 298] it was 490 nM.
In the case of `Cn1c(=O)n(Cc2ccc(C(=O)O)c(O)c2)c(=O)c2cc(C(N)=O)sc21` [Example 251] it was 655 nM; in that of `COc1ccc(CNC(=O)c2cc3c(=O)n(CCC(=O)c4ccccc4)c(=O)n(C)c3s2)cc1` [Example 254], 1500 nM; in that of `COc1cccc(CNC(=O)c2cc3c(=O)n(Cc4ccc5nonc5c4)c(=O)n(C)c3s2)c1` [Example 296], 50.5 nM.
The result for `COc1cccc(CNC(=O)c2cc3c(=O)n(Cc4ccc(C5(C(=O)OC(C)(C)C)CC5)cc4)c(=O)n(C)c3s2)c1` [Example 93, 1-{4-[6-(3-Methoxy-benzylcarbamoyl)-1-methyl-2,4-dioxo-1,4-dihydro-2H-thieno[2,3-d]pyrimidin-3-ylmethyl]-phenyl}-cyclopropanecarboxylic acid tert-butyl ester] reads 111 nM; that for `COc1cccc(CNC(=O)c2cc3c(=O)n(Cc4ccc(N)nc4)c(=O)n(C)c3s2)c1` [Example 384, 3-(6-Amino-pyridin-3-ylmethyl)-1-methyl-2,4-dioxo-1,2,3,4-tetrahydro-thieno[2,3-d]pyrimidine-6-carboxylic acid 3-methoxy-benzylamide], 660 nM; that for `Cn1c(=O)n(Cc2ccc(C(C)(C)C)cc2)c(=O)c2cc(C(=O)OCc3ccccc3)sc21` [Example 309, 3-(4-tert-Butyl-benzyl)-1-methyl-2,4-dioxo-1,2,3,4-tetrahydro-thieno[2,3-d]pyrimidine-6-carboxylic acid benzyl ester], 56 nM.
Turning to `CC(CNC(=O)c1cc2c(=O)n(Cc3ccccc3)c(=O)n(C)c2s1)c1ccccc1` (centres unmarked) [Example 330, 3-Benzyl-1-methyl-2,4-dioxo-1,2,3,4-tetrahydro-thieno[2,3-d]pyrimidine-6-carboxylic acid (2-phenyl-propyl)-amide], the half-maximal inhibitory concentration (IC50) is more than 100000 nM.
In the case of `COc1ccc(CNC(=O)c2cc3c(=O)n(CC4CCCCC4)c(=O)n(C)c3s2)cc1` [Example 70, 3-cylcohexylmethyl-1-methyl-2,4-dioxo-1,2,3,4-tetrahydro-thieno[2,3-d]pyrimidine-6-carboxylic acid-4methoxy-benzylamide] it was 119 nM; in that of `Cn1ccc2cc(COC(=O)c3cc4c(=O)n(Cc5ccccc5)c(=O)n(C)c4s3)ccc21` [Example 305, 3-Benzyl-1-methyl-2,4-dioxo-1,2,3,4-tetrahydro-thieno[2,3-d]pyrimidine-6-carboxylic acid 1-methyl-1H-indol-5-ylmethyl ester], 46700 nM.
The result for `CCC(CC)n1c(=O)c2cc(C(=O)NCc3ccc(OC)cc3)sc2n(C)c1=O` [Example 264] reads 7400 nM.
On to `Cn1c(=O)n(Cc2ccccc2)c(=O)c2cc(C(=O)NCCc3ccccn3)sc21` [Example 361, 3-Benzyl-1-methyl-2,4-dioxo-1,2,3,4-tetrahydro-thieno[2,3-d]pyrimidine-6-carboxylic acid (2-pyridin-2-yl-ethyl)-amide], for which the IC50 came to 7700 nM.
The result for `CCC(C)Cn1c(=O)c2cc(C(=O)OCc3ccccc3)sc2n(C)c1=O` (centres unmarked) [Example 120, 1-Methyl-3-(2-methyl-butyl)-2,4-dioxo-1,2,3,4-tetrahydro-thieno[2,3-d]pyrimidine-6-carboxylic acid benzyl ester] reads 130 nM; that for `COc1ccc(CNC(=O)c2cc3c(=O)n(Cc4ccc(C(=O)OC(C)(C)C)cc4)c(=O)n(C)c3s2)cc1OC` [Example 53, 4-[6-(3,4-Dimethoxy-benzylcarbamoyl)-1-methyl-2,4-dioxo-1,4-dihydro-2H-thieno[2,3-d]pyrimidin-3-ylmethyl]-benzoic acid tert-butyl ester], 30000 nM; that for `Cn1c(=O)n(Cc2ccccc2)c(=O)c2cc(C(=O)NCc3ccc(C(F)(F)F)cc3)sc21` [Example 212, 3-Benzyl-1-methyl-2,4-dioxo-1,2,3,4-tetrahydro-thieno[2,3-d]pyrimidine-6-carboxylic acid 4-trifluoromethyl-benzylamide], 670 nM.
The result for `Cn1c(=O)n(Cc2ccccc2)c(=O)c2cc(C(=O)NCCc3ccc(Cl)cc3)sc21` [Example 322, 3-Benzyl-1-methyl-2,4-dioxo-1,2,3,4-tetrahydro-thieno[2,3-d]pyrimidine-6-carboxylic acid[2-(4-chloro-phenyl)-ethyl]-amide] reads more than 100000 nM; that for `Cn1c(=O)n(Cc2ccc(C(=O)OC(C)(C)C)cc2)c(=O)c2cc(C(=O)NCc3ccc(Br)cc3)sc21` [Example 56, 4-[6-(4-Bromo-benzylcarbamoyl)-1-methyl-2,4-dioxo-1,4-dihydro-2H-thieno[2,3-d]pyrimidin-3-ylmethyl]-benzoic acid tert-butyl ester], 30000 nM; that for `Cn1c(=O)n(Cc2ccccc2)c(=O)c2cc(C(=O)NC3CC3)sc21` [Example 215, 3-Benzyl-1-methyl-2,4-dioxo-1,2,3,4-tetrahydro-thieno[2,3-d]pyrimidine-6-carboxylic acid cyclopropylamide], 24000 nM.
Consider `COc1cccc(COC(=O)c2cc3c(=O)n(Cc4ccccc4)c(=O)n(C)c3s2)c1` [Example 193, 3-Benzyl-1-methyl-2,4-dioxo-1,2,3,4-tetrahydro-thieno[2,3-d]pyrimidine-6-carboxylic acid 3-methoxy-benzyl ester], for which the half-inhibitory concentration (IC50) was 3.4 nM.
In the case of `COc1ccc(CNC(=O)c2cc3c(=O)n(CC(=O)C(CC(=O)OC(C)(C)C)NC(=O)OCc4ccccc4)c(=O)n(C)c3s2)cc1` (centres unmarked) [Example 277] it was 20000 nM.
The result for `COc1cccc(CNC(=O)c2cc3c(=O)n(Cc4ccc(OC(C)(C)C(=O)OC(C)(C)C)cc4)c(=O)n(C)c3s2)c1` [Example 95, 2-{4-[6-(3-Methoxy-benzylcarbamoyl)-1-methyl-2,4-dioxo-1,4-dihydro-2H-thieno[2,3-d]pyrimidin-3-ylmethyl]-phenoxy}-2-methyl-propionic acid tert-butyl ester] reads 103 nM.
As to `CC(=O)c1ccc(-n2c(=O)[nH]c3sc(C(=O)OCc4ccccc4)c(C)c3c2=O)cc1` [Example 6, 3-(4-Acetyl-phenyl)-5-methyl-2,4 dioxo-1,2,3,4-tetrahydro-thieno[2,3-d]-pyrimidine-6-carboxylic acid benzyl ester], the IC50 is more than 100000 nM.
The result for `COc1cccc(CNC(=O)c2cc3c(=O)n(CCS(=O)(=O)c4cccc(C(F)(F)F)c4)c(=O)n(C)c3s2)c1` [Example 244, 1-Methyl-2,4-dioxo-3-[2-(3-trifluoromethyl-benzenesulfonyl)-ethyl]-1,2,3,4-tetrahydro-thieno[2,3-d]pyrimidine-6-carboxylic acid 3-methoxy-benzylamide] reads 1250 nM; that for `Cn1c(=O)n(Cc2ccc3ccccc3c2)c(=O)c2cc(C(=O)OCc3ccccc3)sc21` [Example 312, 1-Methyl-3-naphthalen-2-ylmethyl-2,4-dioxo-1,2,3,4-tetrahydro-thieno[2,3-d]pyrimidine-6-carboxylic acid benzyl ester], 27.5 nM.
For `COc1ccc(CNC(=O)c2cc3c(=O)n(CCC(=O)c4ccc(F)cc4)c(=O)n(C)c3s2)cc1` [Example 270], the IC50 worked out at 1800 nM.
The result for `COc1ccc(CNC(=O)c2cc3c(=O)[nH]c(=O)n(C)c3s2)cc1` [Example 216] reads 18000 nM.
The result for `COc1cccc(Cn2c(=O)c3cc(C(=O)OCc4ccccc4)sc3n(C)c2=O)c1` [Example 98, 3-(3-Methoxy-benzyl)-1-methyl-2,4-dioxo-1,2,3,4-tetrahydro-thieno[2,3-d]pyrimidine-6-carboxylic acid benzyl ester] reads 63 nM; that for `COc1nc2sc(C(=O)OCc3ccccc3)cc2c(=O)n1Cc1ccccc1` [Example 88, 3-Benzyl-2-methoxy-4-oxo-3,4-dihydro-thieno[2,3-d]pyrimidine-6-carboxylic acid benzyl ester], 3150 nM.
`COc1ccc(CNC(=O)c2cc3c(=O)n(Cc4ccc(C#N)cc4)c(=O)n(C)c3s2)cc1` [Example 64, 3-(4-Cyano-benzyl)-1-methyl-2,4-dioxo-1,2,3,4-tetrahydro-thieno[2,3-d]pyrimidine-6-carboxylic acid 4-methoxy-benzylamide]: the 50% inhibitory concentration (IC50) was found to be 62 nM.
The result for `COc1ccc(CNC(=O)c2cc3c(=O)n(Cc4ccc5nonc5c4)c(=O)n(C)c3s2)cc1` [Example 274] reads 18 nM.
